According to patent US11970470B1, “{5-chloro-2-(2-(3-(substitutedphenyl)-1,2,4-oxadiazol-5-yl)ethyl)phenyl}(phenyl)methanones as larvicidal agents” (KING FAISAL UNIVERSITY, priority 2023, dated 2024):
Like-named read-outs stand apart in the source and are kept apart here.

Tests used:
[1] = system: Anopheles arabiensis; experiment: Larvicidal screening (WHO protocol), 3rd instar larvae; format: in vivo; settings: for mortality at 4 µg/mL: 4 μg/mL
Experimental: Anopheles arabiensis was used in the study according to the protocol described by WHO (1975) guidelines in an insectary simulating the temperature (27.5° C.), humidity (70%), and lighting (12/12) of a malaria-endemic environment. One mL of test compound (1 mg/mL) was added to 1 mL of acetone and followed by […] of distilled water to obtain a final concentration of 4 μg/mL. Thirty individuals of 3rd instar larvae were introduced into a container. Negative control was set up using the solvent (acetone) and distilled water, and a positive control included Temephos, which is an active emulsified organophosphate larvicidal used by malaria control programs. Larval mortality was examined for each container separately for 24 h and fed specially made cat food that contained less oil/fat content. The percentage of mortality was determined relative to the initial number of larvae exposed.
Differences in larval mortality between treatments were assessed with generalized linear models using a quasi-Poisson link function. Anopheles arabiensis mortality was the dependent variable, while fixed effects were test compounds and observation period (24 and 48 h). A p-value<0.05 was considered statistically significant. Throughout the text, the results are presented as the adjusted mean±the standard error.

[2] = Anopheles arabiensis larvae exposed for 24 h, read-out: Mortality in % (Mean ± SEM) 24 h
[3] = Anopheles arabiensis larvae exposed for 48 h, read-out: Mortality in % (Mean ± SEM) 48 h

| Compound | melting point [°C] | mortality at 4 µg/mL [1, 2] [%] | mortality at 4 µg/mL [1, 3] [%] | larval mortality rate in 48 hours ([1]; in 48 hours, unit not given) |
| --- | --- | --- | --- | --- |
| COc1cc(-c2noc(COc3ccc(Cl)cc3C(=O)c3ccccc3)n2)ccc1F [Compound 5i, {5-Chloro-2-[(3-(4-fluoro-3-methoxyphenyl)-1,2,4-oxadiazol-5-yl)-methoxy]-phenyl}-(phenyl)-methanone] |  | 79.5 ± 1.09 | 84.7 ± 1.88 |  |
| O=C(c1ccccc1)c1cc(Cl)ccc1OCc1nc(-c2ccc(F)c(Cl)c2)no1 [Compound 5f, {5-Chloro-2-[(3-(3-chloro-4-fluorophenyl)-1,2,4-oxadiazol-5-yl)-methoxy]-phenyl}-(phenyl)-methanone] |  | 98.2 ± 1.22 | 100 ± 2.01 | 100.00±2.01 |
| Cc1cc(F)c(-c2noc(COc3ccc(Cl)cc3C(=O)c3ccccc3)n2)cc1F [Compound 5d, {5-Chloro-2-[(3-(2,5-difluoro-4-methylphenyl)-1,2,4-oxadiazol-5-yl)-methoxy]-phenyl}-(phenyl)-methanone] | 87 to 89 |  |  |  |
| Cc1cc(-c2noc(COc3ccc(Cl)cc3C(=O)c3ccccc3)n2)ccc1F [Compound 5h, {5-Chloro-2-[(3-(4-fluoro-3-methylphenyl)-1,2,4-oxadiazol-5-yl)-methoxy]-phenyl}-(phenyl)-methanone] |  | 83.6 ± 2.01 | 86.1 ± 1.95 |  |
| O=C(c1ccccc1)c1cc(Cl)ccc1OCc1nc(-c2ccc(F)cc2)no1 [Compound 5b, {5-Chloro-2-[(3-(4-fluorophenyl)-1,2,4-oxadiazol-5-yl)-methoxy]-phenyl}-(phenyl)-methanone] |  | 91.7 ± 1.61 | 94.7 ± 1.9 |  |

Now from value to compound, other results behind:

| melting point [°C] | Compound | mortality at 4 µg/mL [1, 2] [%] | mortality at 4 µg/mL [1, 3] [%] | larval mortality rate in 48 hours ([1]; in 48 hours, unit not given) |
| --- | --- | --- | --- | --- |
| 110 to 112 | CC(C)c1ccc(-c2noc(COc3ccc(Cl)cc3C(=O)c3ccccc3)n2)cc1 [Compound 5g, {5-Chloro-2-[(3-(4-isopropylphenyl)-1,2,4-oxadiazol-5-yl)-methoxy]-phenyl}-(phenyl)-methanone] |  |  |  |
| 80 to 82 | CCOc1ccc(-c2noc(COc3ccc(Cl)cc3C(=O)c3ccccc3)n2)cc1 [Compound 5e, {5-Chloro-2-[(3-(4-ethoxyphenyl)-1,2,4-oxadiazol-5-yl)-methoxy]-phenyl}-(phenyl)-methanone] |  |  |  |
| 124 to 126 | O=C(c1ccccc1)c1cc(Cl)ccc1OCc1nc(-c2ccc(I)cc2)no1 [Compound 5c, {5-chloro-2-[(3-(4-iodophenyl)-1,2,4-oxadiazol-5-yl)-methoxy]-phenyl}-(phenyl)-methanone] |  |  |  |
| 108 to 110 | O=C(c1ccccc1)c1cc(Cl)ccc1OCc1nc(-c2ccccc2)no1 [Compound 5a, {5-Chloro-2-[(3-(phenyl)-1,2,4-oxadiazol-5-yl)-methoxy]-phenyl}-(phenyl)-methanone] |  |  |  |
